Values quoted from earlier work as cited in US20060024806A1, “Mycolactone locus: an assembly line for producing novel polyketides, therapeutic and prophylactic uses” (priority 2003, published 2006).

System: guinea pig model of the disease
Settings: purified mycolactone injected subcutaneously

Q: For `CC(=C\C=C\C(C)=C\[C@H](O)[C@@H](O)C[C@H](C)O)/C=C(C)/C=C/C(=O)O[C@H]1CCCC(=O)O[C@@H]([C@@H](C)C/C(C)=C/[C@@H](C)[C@H](O)C[C@@H](C)O)C/C=C(\C)C[C@@H]1C` [mycolactone], which pathology after injection is on record?
A: reproduces the natural pathology
